Source: US8975275B2, “Use of chemotherapeutic agents” (priority 1999, dated 2015)
Where a name gives a salt, the structure may show the parent alone.

Tests used:
Type in all cases: in vivo, human
periodontal diseases = experiment: Topical treatment of periodontal diseases (patient cases)
Excerpt: To do this, threads or so-called chips impregnated with solutions or gelatinous preparations of the compounds of formula (I) or formula (II) are inserted in the gingival pocket. A possible alternative is to use medicament carriers in the form of trays covering the teeth and gingiva. Before they are applied, the gelatinous applications of the compounds of formula (I) or formula (II) are instilled into the gingival pockets. In addition, the gel containing the compounds of formula (I) or formula (II) can also be placed in the medicament carrier. This use of medicament carriers is advantageous because the treatment time can be reduced by the rapid onset of action to about 15 to 30 minutes, so the treatment can be carried out directly in the surgery. The compounds of formula (I) or formula (II) can be used in concentrations of 0.005 mg/ml to 200 mg/ml. Preferred concentrations are those ranging from 0.5 mg/ml to 200 mg/ml and particularly preferred concentrations are those ranging from 10 to 150 mg/ml. Periodontal diseases can also be treated by administering the compounds of formula (I) or formula (II) by intraligamental injection, it being possible to use concentrations ranging from 0.005 mg/ml to 200 mg/ml, preferably from 0.5 mg/ml to 200 mg/ml. For the antibiotics commonly used nowadays, such as tetracyclines, an intraligamental injection is not reasonable since these compounds with a predominantly bacteriostatic action are quickly washed out due to the rapid fluid exchange in the periodontal interstice, and cannot develop their action. Tetra-cyclines can therefore only develop their effects via depot formulations. By contrast, the compounds of formula (I) or formula (II) have a very rapid and also bactericidal action, so their residence time in the periodontal interstice is sufficient to destroy the microbes.

dentin wounds = experiment: Prophylaxis of dentin wounds (patient cases)
Excerpt: For this reason, after removal of the carious regions, the compounds of formula (I) or formula (II) are applied to the prepared cavities and rubbed in. Said compounds are applied in the form of solutions, gels or suspensions to form a local depot with an antibiotic action before the reliner is placed on and/or in the fundament of the inlays, onlays, crowns or bridges. […] A further advantage is that the tubule structure is not modified or denatured here, as is frequently the case with the current procedures using dentin protecting agents and impregnating agents. The microbe-free conditions achieved in this way have a permanent beneficial effect on prosthetic procedures since dentin hypersensitivities and subsequently secondary caries are effectively avoided.
The application of the compounds of formula (I) or formula (II) can either replace or complement the disinfecting treatment with hydrogen peroxide. The compounds of formula (I) or formula (II) can be applied in dissolved form or as a gel, optionally in the presence of solubilizers to promote a deep penetration of the chemotherapeutic agents into the dentinal tubules. Gels are used in the provisional care of dentin wounds and solutions are preferably used before the definitive fixing of e.g. crowns and bridges. The solutions or gels of the chemotherapeutic agents used are applied to the prepared dentin surfaces and gently rubbed in. Residues are then removed, for example with a cotton wool swab or air jet. Inlays, onlays, crowns or bridges can then be fixed. The compounds of formula (I) or formula (II) can be used in concentrations of 0.005 mg/ml to 200 mg/ml. Preferred concentrations are those ranging from 0.5 mg/ml to 150 mg/ml and particularly preferred concentrations are those ranging from 10 to 100 mg/ml.

osseomucosal wounds = experiment: Topical treatment of osseomucosal wounds (patient cases)
Excerpt: Application is effected by flushing and/or by means of strip inserts impregnated with compounds of formula (I) or formula (II). They are to be used for example for postoperative infections following dentosurgical interventions (extractions). For this purpose the gel containing the compound of formula (I) or formula (II) is syringed directly into the extraction wound or onto a collagen sponge which remains in the extraction wound. The wound is closed for about half an hour by biting on a tampon. Prophylactic applications have been particularly successful after the extraction of teeth with focal infections, Liquid forms of administration suitable for flushing fistulae are those containing the compounds of formula (I) or formula (II) in concentrations of 0.005 mg/ml to 250 mg/ml. Preferred concentrations are those ranging from 0.5 to 100 mg/ml, Forms suitable for coating strips are gels containing the compounds of formula (I) or formula (II), as well as aqueous solutions or suspensions. These applications can contain the compounds of formula (I) or formula (II) in concentrations of 0.005 mg/ml to 200 mg/ml. Preferred concentrations for solutions are those ranging from 0.1 to 50 mg/ml Gelatinous forms of administration in concentrations of 25-150 mg/ml are preferred in the case of strip inserts.

With `COc1c(N2C[C@@H]3CCCN[C@@H]3C2)c(F)cc2c(=O)c(C(=O)O)cn(C3CC3)c12` [moxifloxacin hydrochloride, 1-cyclopropyl-6-fluoro-1,4-dihydro-8-methoxy-7-[(4aS,7aS)-octahydro-6H-pyrrolo[3,4-b]pyridin-6-yl]-4-oxo-3-quinolinecarboxylic acid] the “clinical finding at check-up” value (periodontal diseases; Patient B 1, teeth 26 and 27 marginal periodontitis, thread insert gel 50 mgn/ml, check-up after 3 days) was “patient symptom-free, gingival regions and pockets inflammation-free”, the “clinical finding at check-up” value (periodontal diseases; Patient B 2, teeth 14 to 18 severe marginal periodontitis, thread insert gel 50 mg/ml, check-up after 4 days) was “patient symptom-free, gingival regions and pockets inflammation-free” and the “clinical finding at check-up” value (periodontal diseases; Patient B 3, teeth 24 to 28 marginal periodontitis, thread insert 50 mg/ml, check-up after 5 days) was “patient symptom-free, gingival regions and pockets inflammation-free”. For the same compound, the “clinical finding at check-up” value (periodontal diseases; Patient B 4, marginal periodontitis entire upper and lower jaw, medicinal splint gel 0.25 mg/ml 10 minutes/day for 4 days, check-up after 3 days) was “patient symptom-free, no more inflammatory phenomena present”, the “clinical finding at check-up” value (periodontal diseases; Patient B 5, tooth 37 marginal periodontitis, thread insert gel 50 mg/ml, check-up after 8 days) was “patient symptom-free, gingival regions and pockets inflammation-free” and the “clinical finding at check-up” value (periodontal diseases; Patient B 6, teeth 25-28 severe marginal periodontitis, thread insert gel 50 mg/ml + intraligamental injection 50 mg/ml, check-up after 10 days) was “patient symptom-free, gingival regions and pockets inflammation-free”. The “clinical finding at check-up” value (dentin wounds; Patient A 2.1, teeth 33 and 36 prepared for bridge, solution 25 mg/ml to cavity, check-up after 3 weeks) was “patient symptom-free”, the “clinical finding at check-up” value (dentin wounds; Patient A 2.2, solution 50 mg/ml, after final filling, check-up after 4 weeks) was “teeth vital, patient symptom-free” and the “clinical finding at check-up” value (dentin wounds; Patient A 2.2, teeth 22, 23, 24, smear with solution 50 mg/ml, check-up after 2 weeks) was “teeth symptom-free”. For the same compound, the “clinical finding at check-up” value (dentin wounds; Patient A 2.3, teeth 14-17 cervical erosions, smear with solution 50 mg/m, check-up after 3 weeks) was “patient symptom-free”, the “clinical finding at check-up” value (dentin wounds; Patient A 2.4, teeth 11, 12, 21, 22 prepared for crowns, smear with solution 25 mg/ml, check-up after 3 weeks) was “patient symptom-free” and the “clinical finding at check-up” value (dentin wounds; Patient A 2.5, tooth 44, smear with solution 25 mg/ml, check-up after 9 days) was “patient symptom-free”. The “clinical finding at check-up” value (osseomucosal wounds; Patient C 1, wound care after extraction, depot of gel 50 mg/ml by gauze strip, check-up after 3 days) was “patient symptom-free, good wound margin adaptation”, the “clinical finding at check-up” value (osseomucosal wounds; Patient C 2, regio 36 fistulation, incision, flushing solution 50 mg/ml + strip insert gel 50 mg/ml, check-up after 3 days) was “patient symptom-free, good rapid healing process” and the “clinical finding at check-up” value (osseomucosal wounds; Patient C 3, teeth 26 and 46 apical granulomas, extraction (osteotomy), gauze with gel 50 mg/ml, check-up after 2 days) was “patient symptom-free”. The “clinical finding at check-up” value (osseomucosal wounds; Patient C 4, gauze with gel 50 mg/ml, check-up after one week) was “good wound margin adaptation, patient symptom-free”, the “clinical finding at check-up” value (osseomucosal wounds; Patient C 4, tooth 48 osteotomy, gauze with gel 50 mg/ml, check-up after 2 days) was “slight wound pain, no postoperative oedema” and the “clinical finding at check-up” value (osseomucosal wounds; Patient C 5, after root canal filling, check-up after 3 weeks) was “patient symptom-free”. The “clinical finding at check-up” value (osseomucosal wounds; Patient C 5, tooth 34 pulpitis purulenta, fistulation, flushing solution 50 mg/ml + canal insert and gauze insert gel 50 mg/ml, check-up after 3 days) was “good healing process, patient symptom-free”, the “clinical finding at check-up” value (osseomucosal wounds; Patient C 6, tooth 36 wound care after extraction, depot of gel 50 mg/ml by gauze strips, check-up after 3 days) was “patient symptom-free, good wound margin adaptation” and the “clinical finding at check-up” value (osseomucosal wounds; Patient C 7, tooth 22 root tip resection due to cyst, strip insert gel 50 mg/ml, check-up after 3 days) was “patient symptom-free, good healing process”. For the same compound, the “clinical finding at check-up” value (osseomucosal wounds; Patient C 9, same combined treatment, after root canal filling, check-up after 2 weeks) was “patient symptom-free” and the “clinical finding at check-up” value (osseomucosal wounds; Patient C 9, tooth 14 pulpitis purulenta, fistulation, moxifloxacin hydrochloride solution 25 mg/ml flushing + grepafloxacin gel 25 mg/ml canal insert + moxifloxacin hydrochloride gel 25 mg/ml gauze insert, check-up after 6 days) was “patient symptom-free”.
